# Assay results as given in patent publication US20050209278A1, “Piperidinyl- and piperazinyl-sulfonylmethyl hydroxamic acids and their use as protease inhibitors” (priority 2002, published 2005).
# Molecular target: T1, MMP-9 (Homo sapiens, UniProt P14780)
# T1 construct: made in house; host or cells: MMP-9-transfected HT1080 cells (spent media)
# Test: In vitro MMP inhibition, Ki determination (fluorogenic substrate II)
# Format: biochemical
# Conditions: value not in parenthesis
# Method: Several hydroxamic acids and salts thereof were analyzed in in vitro assays to determine their ability to inhibit the MMP cleavage of peptide substrates. […] and IC50 constants were calculated from the assayed hydroxamic acid-MMP interactions.
# Human recombinant MMP-1, MMP-2, MMP-9, MMP-13, and MMP-14 were used in this assay. All enzymes were prepared in Assignee's laboratories following usual laboratory procedures. Protocols for the preparation and use of these enzymes are available in the scientific literature. See, e.g., Enzyme Nomenclature (Academic Press, San Diego, Calif., 1992) (and the citations therein). See also, Freije et al., “Molecular cloning and expression of collagenase-3, a novel human matrix metalloproteinase produced by breast carcinomas,” J Biol. Chem., 269(24), 16766-16773 (1994).
# The MMP-9 proenzyme was purified by gelatin Sepharose chromatography from spent media of MMP-9-transfected HT1080 cells provided by Dr. Howard Welgus of Washington University (St. Louis, Mo.).
# All MMPs were activated using 4-aminophenylmercuric acetate (“APMA”, Sigma Chemical, St. Louis, Mo.) or trypsin. MMP-9 also was activated using human recombinant MMP-3 (purified in Assignee's laboratory following standard cloning and purification techniques).
# Two fluorogenic, methoxycoumarin-containing polypeptide substrates were used in the MMP inhibition assays: [drawing 427] Here, “Dpa” is 3-(2,4-dinitrophenyl)-L-2,3-diaminopropionyl group, and “MCA” is 7-methoxycoumarin-4-yl acetyl. Substrate (I) was purchased from Baychem (Redwood City, Calif.), and substrate II was prepared Assignee's laboratory. Substrate I was used in the IC50 determination assays, while substrate II was used in the Ki determination assays. In the absence of MMP inhibitory activity, either substrate is cleaved at the Gly-Leu peptide bond. This cleavage separates the highly fluorogenic peptide from the 2,4-dinitrophenyl quencher, thus resulting in increase of fluorescent intensity.
# The stock solutions of the assayed hydroxamic acids (or salts thereof) were prepared in 1% dimethyl sulfoxide (DMSO). These stock solutions were diluted in Buffer A (100 mM Tris-HCl, 100 mM NaCl, 10 mM CaCl2, 0.05% polyoxyethylene 23 lauryl ether, pH 7.5) to obtain solutions with different hydroxamic acid concentrations, i.e., assay solutions with different concentrations of the assayed MMP inhibitory compound. The experiment controls contained the same amount of Buffer A/DMSO as the assayed sample, but contained no hydroxamic acid (or salt thereof).
# The assays from which the Ki determinations were made were performed as follows. The assayed hydroxamic acid samples were incubated in separate wells of untreated white polystyrene plates (Nunc Nalgene International, Rochester, N.Y.), and analyzed on a Tecan SpectraFlour Plus plate reader. The excitation wavelength was 330 nm, and the emission wavelength—420 nm. All samples (assayed hydroxamic acids and controls) were incubated in separate plate wells at room temperature for 1 hr in the presence of 4 μM of MMP substrate (II). In the absence of MMP inhibitory activity, substrate II was cleaved at the Gly-Leu bond resulting in an increase of relative fluorescence. Inhibition was observed as a reduced rate of this increase in relative fluorescence. The various hydroxamic acids were analyzed using a single low enzyme concentration with a single substrate concentration fixed at or below the Km. This protocol is a modification of method by Knight et al., FEBS Lett., 296(3), 263-266 (1992). Apparent inhibitory constants were determined by non-linear regression of reaction velocity as a function of inhibitor and enzyme concentration using Morrison's equation, as described by Kuzmic, Anal. Biochem. 286, 45-50 (2000). Modifications were made in the non-linear regression method to allow a common control reaction rate and effective enzyme concentration to be shared between all dose-response relationships on a given assay plate. […]
# T1 sequence (P14780 107-707 limits assumed): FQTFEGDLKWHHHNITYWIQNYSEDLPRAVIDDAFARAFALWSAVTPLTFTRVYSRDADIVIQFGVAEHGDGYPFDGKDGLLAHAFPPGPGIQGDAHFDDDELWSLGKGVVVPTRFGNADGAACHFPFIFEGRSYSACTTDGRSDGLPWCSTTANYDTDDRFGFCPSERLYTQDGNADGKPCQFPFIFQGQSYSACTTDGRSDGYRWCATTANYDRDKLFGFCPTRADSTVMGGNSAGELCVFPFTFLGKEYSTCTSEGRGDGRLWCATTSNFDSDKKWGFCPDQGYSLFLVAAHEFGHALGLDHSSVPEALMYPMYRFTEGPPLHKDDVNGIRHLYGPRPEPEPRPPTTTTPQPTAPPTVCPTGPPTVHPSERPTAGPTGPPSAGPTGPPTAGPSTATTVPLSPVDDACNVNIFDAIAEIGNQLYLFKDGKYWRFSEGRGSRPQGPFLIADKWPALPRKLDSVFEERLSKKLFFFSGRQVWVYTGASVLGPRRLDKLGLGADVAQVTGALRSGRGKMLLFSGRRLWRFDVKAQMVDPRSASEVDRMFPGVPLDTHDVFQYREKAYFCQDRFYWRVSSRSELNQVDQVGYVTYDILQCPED
row,SMILES,Ki [nM]
1,O=C(NO)C1(S(=O)(=O)N2CCN(c3ncccn3)CC2)CCOCC1 [Example 107],153
2,COc1ccc(N2CCN(S(=O)(=O)C3(C(=O)NO)CCOCC3)CC2)nc1 [Example 108],401
3,COc1ccc(N2CCN(S(=O)(=O)C3(C(=O)NO)CCOCC3)CC2)nc1 [Example 109],447
4,CCCCCCCCCc1cnc(N2CCN(S(=O)(=O)C3(C(=O)NO)CCOCC3)CC2)nc1 [Example 110],40.6
5,CCCCCCCCCc1cnc(N2CCN(S(=O)(=O)C3(C(=O)NO)CCOCC3)CC2)nc1 [Example 111],30.6
6,O=C(NO)C1(S(=O)(=O)N2CCN(c3ccc(OCCCC(F)(F)F)cc3)CC2)CCN(c2cnccn2)CC1 [Example 112],15.4
7,CCCCOc1ccc(N2CCN(S(=O)(=O)C3(C(=O)NO)CCN(C(=O)OCCF)CC3)CC2)cc1 [Example 113],1.01
8,CCc1ccc(N2CCN(S(=O)(=O)C3(C(=O)NO)CCOCC3)CC2)nc1 [Example 114],2.64
9,CCCCOc1ccc(N2CCN(S(=O)(=O)C3(C(=O)NO)CCN(C(=O)OCC(F)(F)F)CC3)CC2)cc1 [Example 115],4.97
10,CC(C)(C)N1CCC(C(=O)NO)(S(=O)(=O)N2CCN(c3ccc(OCCCC(F)(F)F)cc3F)CC2)CC1 [Example 116],49.5
11,O=C(NO)C1(S(=O)(=O)N2CCN(c3ccc(OCCCC(F)(F)F)cc3F)CC2)CCOCC1 [Example 117],27.7
12,CCCCOc1ccc(N2CCN(S(=O)(=O)C3(C(=O)NO)CCN(C(=O)NCCOC)CC3)CC2)cc1 [Example 118],1.5
13,COCCN1CCC(C(=O)NO)(S(=O)(=O)N2CCN(c3ccc(OCC(F)(F)F)cc3)CC2)CC1 [Example 119],1.35
14,CCCCOc1ccc(N2CCN(S(=O)(=O)C3(C(=O)NO)CCN(c4ccc(O)cc4)CC3)CC2)cc1 [Example 121],3.6
15,O=C(c1cccnc1)N1CCC(C(=O)NO)(S(=O)(=O)N2CCN(c3ccc(OCCCC(F)(F)F)cc3)CC2)CC1 [Example 122],0.01
16,CCCCOc1ccc(N2CCN(S(=O)(=O)C3(C(=O)NO)CCN(C(=S)N(C)C)CC3)CC2)cc1 [Example 123],2.72
17,CCCCOc1ccc(N2CCN(S(=O)(=O)C3(C(=O)NO)CCN(C(=O)N4CCOCC4)CC3)CC2)cc1 [Example 124],0.429
18,CCCCOc1ccc(N2CCN(S(=O)(=O)C3(C(=O)NO)CCN(c4ccc(C)cn4)CC3)CC2)cc1 [Example 125],7.2
19,CCCCOc1ccc(N2CCN(S(=O)(=O)C3(C(=O)NO)CCN4CCCC4C3)CC2)cc1F (centres unmarked) [Example 126],19
20,CCCCOc1ccc(N2CCN(S(=O)(=O)C3(C(=O)NO)CCN(C(=O)c4cc5ccccc5o4)CC3)CC2)cc1 [Example 127],24
21,CC(C)CCOc1ccc(N2CCN(S(=O)(=O)C3(C(=O)NO)CCN(C4CC4)CC3)CC2)cc1 [Example 128],1.92
22,CCCCOc1ccc(N2CCN(S(=O)(=O)C3(C(=O)NO)CCN(c4ccc(OCCOC)nn4)CC3)CC2)cc1 [Example 129],1.2

row,SMILES,Ki [nM]
1,CCCCOc1ccc(N2CCN(S(=O)(=O)C3(C(=O)NO)CCN(c4nccc(C(F)(F)F)n4)CC3)CC2)cc1 [Example 130],23.2
2,CCCCOc1ccc(N2CCN(S(=O)(=O)C3(C(=O)NO)CCN(c4ccc(C)nc4)CC3)CC2)cc1 [Example 131],3.03
3,O=C1c2ccccc2C(=O)N1CCCCc1ccc(N2CCN(S(=O)(=O)C3(C(=O)NO)CCOCC3)CC2)nc1 [Example 132],28.3
4,CC(C)CCc1ccc(N2CCN(S(=O)(=O)C3(C(=O)NO)CCOCC3)CC2)nc1 [Example 133],0.52
5,CCCc1ccc(N2CCN(S(=O)(=O)C3(C(=O)NO)CCOCC3)CC2)nc1 [Example 136],0.196
6,Cc1ccc(N2CCN(S(=O)(=O)C3(C(=O)NO)CCOCC3)CC2)nc1 [Example 138],5.09
7,CCCCOc1ccc(N2CCN(S(=O)(=O)C3(C(=O)NO)CCN(c4cc(C)ccn4)CC3)CC2)cc1 [Example 139],7.45
8,CCCCOc1ccc(N2CCN(S(=O)(=O)C3(C(=O)NO)CCN(c4cnccn4)CC3)CC2)cc1 [Example 140],1.76
9,CCCCOc1ccc(N2CCN(S(=O)(=O)C3(C(=O)NO)CCN(C(=O)OCCOC)CC3)CC2)cc1 [Example 141],5.33
10,CCCCOc1ccc(N2CCN(S(=O)(=O)C3(C(=O)NO)CCN(c4ccc(OC)nc4)CC3)CC2)cc1 [Example 142],2.15
11,CCCCOc1ccc(N2CCN(S(=O)(=O)C3(C(=O)NO)CCN(C(=O)c4cc5ccccc5s4)CC3)CC2)cc1 [Example 143],29
12,COCCN1CCC(C(=O)NO)(S(=O)(=O)N2CCN(c3ccc(OCC(F)(F)C(F)(F)F)cc3)CC2)CC1 [Example 144],2.31
13,CCCCOc1ccc(N2CCN(S(=O)(=O)C3(C(=O)NO)CCOCC3)CC2)cc1 [Example 145],1.18
14,CCCCc1ccc(N2CCN(S(=O)(=O)C3(C(=O)NO)CCN(c4ccc(C)cc4)CC3)CC2)cc1 [Example 146],2.29
15,CCCCCc1ccc(N2CCN(S(=O)(=O)C3(C(=O)NO)CCN(c4ccc(C)cc4)CC3)CC2)cc1 [Example 147],13.7
16,COCCN1CCC(C(=O)NO)(S(=O)(=O)N2CCN(c3ccc(OCCC(C)C)cc3)CC2)CC1 [Example 148],2.35
17,CCCCOc1ccc(N2CCN(S(=O)(=O)C3(C(=O)NO)CCN(c4ccccn4)CC3)CC2)cc1 [Example 149],5.87
18,CCCCOc1ccc(N2CCN(S(=O)(=O)C3(C(=O)NO)CCN(c4nc5ccccc5o4)CC3)CC2)cc1 [Example 150],31.4
19,O=C(NO)C1(S(=O)(=O)N2CCN(c3ccc(SC(F)(F)F)cc3)CC2)CCN(Cc2ccccc2)CC1 [Example 152],90
20,O=C(NO)C1(S(=O)(=O)N2CCN(c3ccc(OCCCC(F)(F)F)cc3)CC2)CCN(C2CC2)CC1 [Example 153],6.1
21,CCCCOc1ccc(N2CCN(S(=O)(=O)C3(C(=O)NO)CCN(c4cccnc4)CC3)CC2)cc1 [Example 154],2.15
22,CCCCOc1ccc(N2CCN(S(=O)(=O)C3(C(=O)NO)CCN(c4ncc(CC)cn4)CC3)CC2)cc1 [Example 155],9.86
